Source: patent publication US20250186600A1, “EXCIPIENT COMPOUNDS FOR PROTEIN FORMULATIONS” (Comera Life Sciences, Inc., priority 2020, published 2025)
Counter-ions that a name gives are not always drawn. One block for each compound: values may come before it. Residues, ends and D or L forms follow the SMILES beside them.

Legend:
omalizumab [1] = assay: Viscosity of omalizumab solution by DLS of gold nanoparticles (Example 62); conditions: omalizumab approximately 200 mg/mL, excipient 0.1M or lower, His HCl pH 6.0, 25° C.
omalizumab [2] = assay: Diffusion interaction parameter kD of omalizumab by DLS (Example 62); conditions: omalizumab 10 to 0.6 mg/mL, 0.1M excipient, His HCl pH 6.0, 25° C.
ustekinumab = assay: Stabilization at low pH, Sypro orange fluorescence (Example 45); conditions: excipient 5 mg/mL, ustekinumab 1 mg/mL, glycine acidification buffer pH 2.6, Sypro orange fluorescence
omalizumab [3] = assay: DLS viscosity of concentrated omalizumab (Example 54); format: physicochemical; conditions: concentrated omalizumab 9 parts : 1 part excipient stock (1 M or solubility limit), 20 mM HisHCl pH 6
Protocol: Hordenine HCl was purchased from Bulk Supplements (Henderson, NV).
The concentrated protein formulation was then combined with a stock excipient solution or a control at a ratio of 9 parts protein: 1 part excipient solution or buffer (for the control), and aliquots were added to the wells of a 384 well microplate (Aurora Microplates, Whitefish, MT). […] After the microplate was shaken, 2 microliters of a 5-fold dilution of polyethylene glycol surface-modified gold nanoparticles having a diameter of 100 nm (nanoComposix, San Diego, CA) in 20 mM His HCl were added to each sample well. […] In this example, the ratio of apparent radius to the actual radius of the gold nanoparticle was multiplied by the viscosity of water at 25° C. to calculate the viscosity of the protein formulation in centipoise (cP).

Compound: NC(C(=O)O)C(O)c1ccccc1 (racemic) [DL-3-phenylserine]
Viscosity normalized to control (omalizumab [1]; Table 62B series): 1.04 | kD (omalizumab [2]; Table 62B series): -30.7 mL/g

Compound: NCCCN [1,3-Diaminopropane]
Viscosity normalized to control (omalizumab [1]; Table 62A series): 0.49 | kD (omalizumab [2]; Table 62A series): -11.3 mL/g

Compound: CN1CCN(C)C1=O [1,3-Dimethyl-2-imidazolidinone]
Viscosity normalized to control (omalizumab [1]; Table 62A series): 0.98 | kD (omalizumab [2]; Table 62A series): -30.9 mL/g

Compound: NCCCN [1,3-diaminopropane]
Viscosity normalized to control (omalizumab [1]; Table 62B series): 0.22 | kD (omalizumab [2]; Table 62B series): -11.4 mL/g

Compound: O=S(=O)(O)c1cccc2c(S(=O)(=O)O)cccc12 [1,5-naphthalenedisulfonic acid]
Viscosity normalized to control (omalizumab [1]; Table 62A series): 0.83 | kD (omalizumab [2]; Table 62A series): -25.1 mL/g

Compound: O=C(O)c1cccc(O)n1 [6-hydroxypyridine-2-carboxylic acid]
Viscosity normalized to control (omalizumab [1]; Table 62A series): 0.93 | kD (omalizumab [2]; Table 62A series): -31.9 mL/g

Compound: COC(=O)[C@H](Cc1ccccc1)NC(=O)[C@@H](N)CC(=O)O [Aspartame] (H-Asp-Phe-OMe)
Viscosity normalized to control (omalizumab [1]; Table 62A series): 0.71

Compound: Nc1ccncc1 [Excipient 4-aminopyridine, 4-aminopyridine]
Viscosity normalized to control (omalizumab [1]; Table 62B series): 0.59 | kD (omalizumab [2]; Table 62B series): -22.5 mL/g

Compound: CN(C)CCc1ccc(O)cc1 [Hordenine HCl]
DLS Viscosity, Replicate 1 (omalizumab [3]): 36.9 cP | DLS Viscosity, Replicate 2 (omalizumab [3]): 22.8 cP

Compound: CC[N+](CC)(CC)CC.Cl [Tetraethylammonium HCl]
DLS Viscosity, Replicate 1 (omalizumab [3]): 73.7 cP | DLS Viscosity, Replicate 2 (omalizumab [3]): 58.3 cP

Compound: NCC(=O)NCC(=O)NCC(=O)NCC(=O)O [Tetraglycine] (H-GGGG-OH)
DLS Viscosity, Replicate 1 (omalizumab [3]): 89.7 cP | DLS Viscosity, Replicate 2 (omalizumab [3]): 72.2 cP

Compound: NCCCC[C@H](N)C(=O)O [lysine]
Viscosity normalized to control (omalizumab [1]; Table 62B series): 0.46 | kD (omalizumab [2]; Table 62B series): -10.1 mL/g

Compound: Pyridyl ethylamine
% change in stability (ustekinumab): 85.6%

Continued, values first:

% change in stability (ustekinumab): 1.8%
Compound: OC[C@@H](O)[C@@H](O)CO [Erythritol]

DLS Viscosity, Replicate 1 (omalizumab [3]): 53.4 cP | DLS Viscosity, Replicate 2 (omalizumab [3]): 54.8 cP
Compound: Cn1ccnc1 [Excipient 1-methylimidazole, 1-methylimidazole]

DLS Viscosity, Replicate 1 (omalizumab [3]): 26.0 cP
Compound: CCCCc1ncc[nH]1 [Excipient 2-butylimidazole, 2-butylimidazole]

DLS Viscosity, Replicate 1 (omalizumab [3]): 57.5 cP | DLS Viscosity, Replicate 2 (omalizumab [3]): 71.8 cP
Compound: CCc1ncc[nH]1 [Excipient 2-ethylimidazole, 2-ethylimidazole]

DLS Viscosity, Replicate 1 (omalizumab [3]): 65.6 cP | DLS Viscosity, Replicate 2 (omalizumab [3]): 81.3 cP
Compound: Cc1ncc[nH]1 [Excipient 2-methylimidazole, 2-methylimidazole]

% change in stability (ustekinumab): 0.6%
Compound: OC[C@@H](O)[C@@H](O[C@@H]1O[C@H](CO)[C@H](O)[C@H](O)[C@H]1O)[C@H](O)[C@@H](O)CO [Lactitol]

% change in stability (ustekinumab): 9.4%
Compound: OC[C@H]1OC(O)[C@@H](O)[C@@H](O)[C@@H]1O (some centres unmarked) [Mannose]

DLS Viscosity, Replicate 1 (omalizumab [3]): 60.1 cP | DLS Viscosity, Replicate 2 (omalizumab [3]): 33.9 cP
Compound: CN[C@@H]1[C@H](O)[C@H](NC)[C@H]2O[C@@]3(O)C(=O)C[C@@H](C)O[C@H]3O[C@@H]2[C@H]1O [Spectinomycin]

Viscosity normalized to control (omalizumab [1]; Table 62A series): 0.73 | kD (omalizumab [2]; Table 62A series): -33.9 mL/g
Compound: O=C(O)/C=C/c1ccc(O)c(O)c1 [caffeic acid]

Viscosity normalized to control (omalizumab [1]; Table 62B series): 0.73 | kD (omalizumab [2]; Table 62B series): -18.5 mL/g
Compound: NCCS [cysteamine HCl]

Viscosity normalized to control (omalizumab [1]; Table 62B series): 1.10 | kD (omalizumab [2]; Table 62B series): -31.2 mL/g
Compound: OCCN(CCO)c1nc(N2CCCCC2)c2nc(N(CCO)CCO)nc(N3CCCCC3)c2n1 [dipyridamole]

Viscosity normalized to control (omalizumab [1]; Table 62B series): 0.51 | kD (omalizumab [2]; Table 62B series): -22.4 mL/g
Compound: NCCO [ethanolamine HCl]

Viscosity normalized to control (omalizumab [1]; Table 62B series): 0.93 | kD (omalizumab [2]; Table 62B series): -34.9 mL/g
Compound: Nc1nc(=O)c2c([nH]1)NCC(CNc1ccc(C(=O)N[C@@H](CCC(=O)[O-])C(=O)[O-])cc1)N2C=O.[Ca+2] (some centres unmarked) [folinic acid calcium salt]

Viscosity normalized to control (omalizumab [1]; Table 62B series): 0.22 | kD (omalizumab [2]; Table 62B series): -13.1 mL/g
Compound: NCc1cccc(CN)c1 [m-xylylenediamine]

Viscosity normalized to control (omalizumab [1]; Table 62B series): 0.83 | kD (omalizumab [2]; Table 62B series): -31.4 mL/g
Compound: NC(=O)c1ccc[n+]([C@@H]2O[C@H](COP(=O)([O-])O)[C@@H](O)[C@H]2O)c1 [nicotinamide mononucleotide]
